In PMC8797470, “Disruption of the pentraxin 3/CD44 interaction as an efficient therapy for triple‐negative breast cancers” (Clinical and Translational Medicine, 2022):
Ends that are not written are not given here.

How the values were obtained:
PTX3/CD44 interaction = biological target: T1, PTX3/CD44 interaction (Homo sapiens, UniProt P16070); experiment: Competitive binding ELISA of HRP-conjugated PTX3 to immobilised CD44; settings: biotinylated peptide 2 h, then 5 μg/ml HRP-conjugated PTX3 1 h at RT
T1 construct: purchased Sino Biological Inc. (CD44) 12211-H08H
T1 sequence (P16070 21-220 limits assumed): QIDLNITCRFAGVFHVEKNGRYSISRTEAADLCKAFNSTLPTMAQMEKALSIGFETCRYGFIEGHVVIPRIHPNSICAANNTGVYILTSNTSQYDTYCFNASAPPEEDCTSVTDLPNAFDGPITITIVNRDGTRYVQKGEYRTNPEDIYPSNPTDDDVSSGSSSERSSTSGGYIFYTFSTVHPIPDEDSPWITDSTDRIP
Procedure: Plate wells (9018; Corning Costar) were coated with 10 μg/ml of CD44 (12211‐H08H; Sino Biological Inc.) in PBS (pH 7.2) and then blocking for 1 h with the blocking buffer including 3% milk in PBS. For the stability binding experiments, the PTX3‐devired biotinylated peptides were pre‐incubated in serum for 1, 2, 4 or 6 h. For the binding experiments, the horseradish peroxidase (HRP)‐conjugated recombinant PTX3, PTX3/N, PTX3/C and PTX3NA or PTX3‐devired biotinylated peptides AD9, GR9, P2rdAD9 and P12rdGR9 (32310; LEADGENE) was responded in the well for 2 h. For the peptide of competition experiments, the PTX3‐devired biotinylated peptides RI37 and GI40 were diluted at the indicated concentration in PBS. After 2 h, PBS washed three times and then incubated with 5 μg/ml HRP‐conjugated PTX3 in PBS for 1 h at room temperature (RT). For the antibody competition experiments, Ab‐10 and Ab‐49 were incubated with 5 μg/ml HRP‐conjugated PTX3 in PBS for 2 h at RT. After incubation, the mixtures was responded in the well for 1 h at RT and then PBS washed three times, tetramethyl benzidine (TMB) was used to detect the bound HRP conjugate. After 15 min, the peroxidase reaction was stopped by adding 0.1 M H2SO4. Next, ELISA plate reader was used to detect the optical densities at 450 nm.

[1] = test system: RANKL, MMP2, NANOG and TWIST2 transcription in MDA-MB-231 cells; experiment: Real-time quantitative PCR of PTX3-induced genes; assay type: cell-based, human; settings: MDA-MB-231 cells, with PTX3 treatment
Text: TRIsure RNA extraction reagent (Invitrogen) extracted total RNA. SuperScript™ III Reverse Transcriptase (Invitrogen) was used to synthesis cDNA. Next, SensiFAST™ SYBR (BIOLINE) was applied to perform real‐time quantitative PCR (Q‐PCR) assay. CFX connect Real‐Time PCR System (BIO‐RAD) executed real‐time fluorescence monitoring and the melting curve analysis according to the manufacturer's recommendations. The following pairs of specific primers—human CEBPD (F): 5′‐[…]‐3′ and CEBPD (R): 5′‐[…]‐3′, human PTX3 (F): 5′‐ […]‐3′ and PTX3 (R): 5′‐ […]‐3′, human MMP2 (F): 5′‐ […]‐3′ and MMP2 (R): 5′‐ […]‐3′, human RANKL (F): 5′‐ AGAGC GCAGATGGATCCTAA‐3′ and RANKL (R): 5′‐ TTCCTTTTGCACAGC TCCTT‐3′, human TWIST2 (F): 5′‐[…]‐3′ and TWIST2 (R): 5′‐[…]‐3′, human NANOG (F): 5′‐[…]‐3′ and NANOG (R): 5′‐ […]‐3′, human GAPDH (F): 5′‐ […]‐3′ and GAPDH (R): 5′‐ […]‐3′.

MDA-MB-231 cells = experiment: Transwell migration and Matrigel invasion assays; assay type: cell-based, human; settings: with PTX3 treatment, 18 h
Text: In migration assay, MDA‐MB‐231 cells seeded in 8.0 μm pore polycarbonate membrane inserts (BD Biosciences) in 24‐well plates. In Matrigel invasion assay, inserts were pre‐coated with an appropriate amount of Matrigel first, and the same number of cells seeded on the Matrigel. After cells adhered on the inserts, serum‐free DMEM medium added in the upper wells. Serum‐free medium containing the treatments of TGF‐β1, PTX3, PTX3NA, PTX3/N, PTX3/C, RI37, GI40, AD9, GR9, IgG1κ, PTX3 Ab‐10 or PTX3 Ab‐49 were then mixed into the lower wells of the 24‐well plates. After incubating for 18 h, cells outside the insert were removed by wiping. The inside the inserts were then stained by 4′,6‐diamidino‐2‐phenylindol (DAPI). Fluorescence microscope was used for counting the total number of migrated cells with 200× magnification. Different from the experimental design for the MDA‐MB‐231 cells, the migrated 4T1‐Luc2 cells in the inside of the insert were detected by luciferase activity.

[2] = test system: mCherry fluorescent-expressing 4T1 cells; experiment: Orthotopic allograft of mCherry 4T1 cells in BALB/c mice; assay type: in vivo, mouse; settings: 40 mg/kg peptide every day, intraperitoneal
Text: For the animal model, MB‐Luc2 cells were mixed with human BCAFs xenografts: 1 × 10^5 MB‐Luc2 were mixed with either 1 × 10^5 BCAFs carrying a control knockdown vector (shCtl‐BCAFs), or 1 × 10^5 BCAFs carrying a CEBPD knockdown vector (shCD‐BCAFs), or 1 × 10^5 BCAFs carrying a PTX3 knockdown vector (shP‐BCAFs). The cell mixtures were inoculated into the mammary fat pads of NOD‐SCID mice. In peptide treatment experiments, NOD‐SCID mice were orthotopically inoculated with 1 × 10^6 mCherry fluorescent‐expressing MDA‐MB‐231 cells into the mammary fat pad. Similarly, 5 × 10^5 mCherry fluorescent‐expressing 4T1 cells were orthotopically inoculated into BALB/c mice in the mammary fat pad. Once tumours reached to the mean of 50 mm^3, the mice were administered 40 mg/kg of peptides RI37, GI40, P2rdAD9 or P12rdGR9 every day by intraperitoneal injection. For paclitaxel treatment, 30 mg/kg of paclitaxel was administered to the experimental mice once a week. […] The images of in vivo bioluminescence and metastasis quantification of the lung and brain were analysed by a Xenogen IVISR Spectrum Noninvasive Quantitative Molecular Imaging System. […] After that, tumour volume was mathematically determined by using the standard formula: […], where l represents the length and w represents the width of the tumour. […] After, the number of nodules on the lung surface was measured. […]

Substance	binding of PTX3 and CD44 in competition with peptide (PTX3/CD44 interaction)	PTX3-induced transcription of RANKL, MMP2, NANOG and TWIST2 [1]	PTX3-induced migration and invasion (MDA-MB-231 cells)	tumour growth and metastasis [2]
RI37: peptide, PTX3 amino acids 200–236 (RPMRLESFSACIWVKATDVLNKTILFSYGTKRNPYEI; also: biotin, position not given here)	attenuated	suppressed	suppressed	suppressed
GI40: peptide, PTX3 amino acids 320–359 (GGGFDETLAFSGRLTGFNIWDSVLSNEEIRETGGAESCHI; also: biotin, position not given here)	attenuated	suppressed	suppressed	suppressed
